We go through 16 compounds from patent publication US20240309038A1, “NOVEL GALACTOSIDE INHIBITOR OF GALECTINS” (GALECTO BIOTECH AB, priority 2020, published 2024).

SMILES strings stand for the structures.

Gal-3, sequence (P17931 whole entry, species assumed): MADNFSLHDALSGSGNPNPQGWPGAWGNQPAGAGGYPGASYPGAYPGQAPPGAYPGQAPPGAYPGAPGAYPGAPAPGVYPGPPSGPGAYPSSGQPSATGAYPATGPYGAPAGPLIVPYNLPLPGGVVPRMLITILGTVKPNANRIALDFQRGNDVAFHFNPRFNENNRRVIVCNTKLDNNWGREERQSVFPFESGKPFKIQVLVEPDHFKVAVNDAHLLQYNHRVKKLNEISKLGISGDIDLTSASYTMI

The assay concerns the target Gal-3 (Homo sapiens, UniProt P17931). The assay can be described thus: Fluorescence anisotropy assay, inhibition of galectin / fluorescein tagged saccharide probe interaction. Type of assay: binding. As to the method: The affinity of Example 1-59 for galectins were determined by a fluorescence anisotropy assay where the compound was used as an inhibitor of the interaction between galectin and a fluorescein tagged saccharide probe as described Sörme, P., Kahl-Knutsson, B., Huflejt, M., Nilsson, U. J., and Leffler H. (2004) Fluorescence polarization as an analytical tool to evaluate galectin-ligand interactions. Anal. Biochem. 334: 36-47, (Sarme et al., 2004)
(Polarisation of emitted light reports the rotation of a fluorescent probe.)
What is called Kd is a measure of binding affinity in units of concentration. `Cc1nc2ccc(-n3cnnc3[C@@H]3OC(CO)[C@H](O)C(n4cc(-c5cc(F)c(F)c(F)c5)cn4)[C@@H]3O)cc2s1` (stereo partly drawn) [Example 2, 6-{3-{3-Deoxy-3-[4-(3,4,5-trifluorophenyl)-1H-1,2-pyrazol-1-yl]-β-D-galactopyranosyl}-4H-1,2,4-triazol-4-yl}-2-methylbenzothiazole]: the Kd stood at 0.039 µM.
Next, `Cc1nc([C@@H]2OC(CO)[C@H](O)C(n3cc(-c4cc(F)c(F)c(F)c4)c(C)n3)C2O)n(-c2cc(Cl)ccc2C(F)(F)F)n1` (stereo in doubt) [Example 49, 5-Chloro-1-{5-{3-deoxy-3-[4-(3,4,5-trifluorophenyl)-3-methyl-1H-1,2-pyrazol-1-yl]-β-D-galactopyranosyl}-3-methyl-1H-1,2,4-triazol-1-yl}-2-(trifluoromethyl)benzene]: 0.013 µM.
As for `Cc1nc([C@@H]2OC(CO)[C@H](O)C(n3cc(-c4cc(F)c(F)c(F)c4)c(-c4cccc(F)c4)n3)C2O)n(-c2cc(Cl)ccc2C(F)(F)F)n1` (stereo in doubt) [Example 54, 5-Chloro-1-{5-{3-deoxy-3-[4-(3,4,5-trifluorophenyl)-3-(3-fluorophenyl)-1H-1,2-pyrazol-1-yl]-β-D-galactopyranosyl}-3-methyl-1H-1,2,4-triazol-1-yl}-2-(trifluoromethyl)benzene], the figure is 0.24 µM; as for `Cc1nc([C@@H]2OC(CO)[C@H](O)C(n3cc(-c4cc(F)c(F)c(F)c4)cn3)C2O)n(-c2cc(C#N)c3nc(C)sc3c2)n1` (stereo in doubt) [Example 42, 4-Cyano-6-{5-{3-deoxy-3-[4-(3,4,5-trifluorophenyl)-1H-1,2-pyrazol-1-yl]-β-D-galactopyranosyl}-3-methyl-1H-1,2,4-triazol-1-yl}-2-methylbenzothiazole], 0.012 µM; as for `Cc1nc([C@@H]2OC(CO)[C@H](O)C(n3cc(-c4cc(F)ccn4)cn3)C2O)n(-c2cc(Cl)ccc2C(F)(F)F)n1` (stereo in doubt) [Example 7, 5-Chloro-1-{5-{3-deoxy-3-[4-(4-fluoropyridin-2-yl)-1H-1,2-pyrazol-1-yl]-β-D-galactopyranosyl}-3-methyl-1H-1,2,4-triazol-1-yl}-2-(trifluoromethyl)benzene], 0.082 µM.
As for `Cc1nc([C@@H]2OC(CO)[C@H](O)C(n3cc(-c4cc(F)c(F)c(F)c4)cn3)C2O)n(-c2ccc3ncsc3c2)n1` (stereo in doubt) [Example 34, 6-{5-{3-Deoxy-3-[4-(3,4,5-trifluorophenyl)-1H-1,2-pyrazol-1-yl]-β-D-galactopyranosyl}-3-methyl-1H-1,2,4-triazol-1-yl}benzothiazole], the figure is 0.009 µM.
`Cc1nc([C@@H]2OC(CO)[C@H](O)C(n3cc(-c4cc(F)c(F)c(F)c4)c(Cc4ccccc4)n3)C2O)n(-c2cc(Cl)ccc2C(F)(F)F)n1` (stereo in doubt) [Example 50, 1-{5-{3-[3-Benzyl-4-(3,4,5-trifluorophenyl)-1H-1,2-pyrazol-1-yl]-3-deoxy-β-D-galactopyranosyl}-3-methyl-1H-1,2,4-triazol-1-yl}-5-chloro-2-(trifluoromethyl)benzene] yielded a Kd of 0.036 µM.
As for `Cc1nc([C@@H]2OC(CO)[C@H](O)C(n3cc(-c4cc(F)c(F)c(F)c4)cn3)C2O)n(-c2ccc3nc(C)sc3c2Cl)n1` (stereo in doubt) [Example 40, 7-Chloro-6-{5-{3-deoxy-3-[4-(3,4,5-trifluorophenyl)-1H-1,2-pyrazol-1-yl]-β-D-galactopyranosyl}-3-methyl-1H-1,2,4-triazol-1-yl}-2-methylbenzothiazole], the figure is 0.26 µM.
Compound `Cc1nc([C@@H]2OC(CO)[C@H](O)C(n3cc(-c4cc(F)c(F)c(F)c4)cn3)C2O)n(-c2cc(Br)ccc2C(F)(F)F)n1` (stereo in doubt) [Example 24, 5-Bromo-1-{5-{3-deoxy-3-[4-(3,4,5-trifluorophenyl)-1H-1,2-pyrazol-1-yl]-β-D-galactopyranosyl}-3-methyl-1H-1,2,4-triazol-1-yl}-2-(trifluoromethyl)benzene] returned a Kd of 0.002 µM.
As to `Cc1nc([C@@H]2OC(CO)[C@H](O)C(n3cc(-c4ccc(C)c(F)c4)cn3)C2O)n(-c2cc(Cl)ccc2C(F)(F)F)n1` (stereo in doubt) [Example 57, 5-Chloro-1-{5-{3-deoxy-3-[4-(3-fluoro-4-methylphenyl)-1H-1,2-pyrazol-1-yl]-β-D-galactopyranosyl}-3-methyl-1H-1,2,4-triazol-1-yl}-2-(trifluoromethyl)benzene], binding was put at a Kd of 0.011 µM.
Turning to `Cc1nc([C@@H]2OC(CO)[C@H](O)C(n3cc(-c4cc(F)c(F)c(F)c4)cn3)[C@@H]2O)n(-c2cnc(C#N)c(Cl)c2)n1` (stereo partly drawn) [Example 23, 3-Chloro-2-cyano-5-{5-{3-deoxy-3-[4-(3,4,5-trifluorophenyl)-1H-1,2-pyrazol-1-yl]-β-D-galactopyranosyl}-3-methyl-1H-1,2,4-triazol-1-yl}pyridine], the affinity, expressed as Kd, was 0.24 µM.
As for `Cc1nc([C@@H]2OC(CO)[C@H](O)C(n3cc(-c4cc(C)c(Cl)cn4)cn3)C2O)n(-c2cc(Cl)ccc2C(F)(F)F)n1` (stereo in doubt) [Example 16, 1-{5-{3-[4-(5-Chloro-4-methylpyridin-2-yl)-1H-1,2-pyrazol-1-yl]-3-deoxy-β-D-galactopyranosyl}-3-methyl-1H-1,2,4-triazol-1-yl}-5-chloro-2-(trifluoromethyl)benzene], the figure is 0.14 µM.
Next, `Cc1nc([C@@H]2OC(CO)[C@H](O)C(n3cc(-c4ccc(Cl)cc4)cn3)C2O)n(-c2cc(Cl)ccc2C(F)(F)F)n1` (stereo in doubt) [Example 59, 1-{5-{3-[4-(4-Chlorophenyl)-1H-1,2-pyrazol-1-yl]-3-deoxy-β-D-galactopyranosyl}-3-methyl-1H-1,2,4-triazol-1-yl}-5-chloro-2-(trifluoromethyl)benzene]: 0.051 µM; `Cc1nc([C@@H]2OC(CO)[C@H](O)C(n3cc(-c4cc(F)c(Cl)c(F)c4)c(C(=O)O)n3)C2O)n(-c2cc(Cl)ccc2C(F)(F)F)n1` (stereo in doubt) [Example 30, 1-{5-{3-[3-Carboxy-4-(4-chloro-3,5-difluorophenyl)-1H-1,2-pyrazol-1-yl]-3-deoxy-β-D-galactopyranosyl}-3-methyl-1H-1,2,4-triazol-1-yl}-5-chloro-2-(trifluoromethyl)benzene]: 0.006 µM; `Cc1nc([C@@H]2OC(CO)[C@H](O)C(n3cc(-c4cc(F)c(F)c(F)c4)cn3)C2O)n(-c2cc3sc(C)nc3cc2F)n1` (stereo in doubt) [Example 37, 6-{5-{3-Deoxy-3-[4-(3,4,5-trifluorophenyl)-1H-1,2-pyrazol-1-yl]-β-D-galactopyranosyl}-3-methyl-1H-1,2,4-triazol-1-yl}-5-fluoro-2-methylbenzothiazole]: 0.016 µM.
As for `Cc1nc([C@@H]2OC(CO)[C@H](O)C(n3cc(-c4cc(F)c(F)c(F)c4)c(-c4ccccc4)n3)C2O)n(-c2cc(Cl)ccc2C(F)(F)F)n1` (stereo in doubt) [Example 47, 5-Chloro-1-{5-{3-deoxy-3-[4-(3,4,5-trifluorophenyl)-3-phenyl-1H-1,2-pyrazol-1-yl]-β-D-galactopyranosyl}-3-methyl-1H-1,2,4-triazol-1-yl}-2-(trifluoromethyl)benzene], the figure is 0.08 µM.
